{"source": "PubChem BioAssay AID1259410", "about": "(Chemical Carcinogenesis Research Information System (CCRIS), 2018)", "origin": "cited, not measured here", "test_system": "rodent tumor promotion studies, tumor incidence", "assay": "CCRIS tumor promotion studies"}
{"smiles": "CCCC1(CCCCCCCCCCCC(=O)OC2C(C)C3(O)C(C=C(CO)CC4(O)C(=O)C(C)=CC43)C3C(C)(C)C23OC(C)=O)OCC(C)(C)N1[O]", "note": "(centres undefined)", "values": [{"measurement": "outcome", "setting": "Carcinogen: 7,12-DIMETHYLBENZ[A]ANTHRACENE, 57-97-6, Doses [Carcinogen]: 100 NMOL ONCE, Doses [Promoter]: 0, 20 NMOL 2/WK FOR 24 WK BEGINNING 1 WK POST CARCINOGEN DOSE (STUDY DURATION: 25 WK), Route [Carcinogen]: DERMAL, Route [Promoter]: DERMAL, Species: MOUSE, Strain/Sex: NMRI/FEMALE", "result": "skin: tumor"}]}
{"smiles": "O=C1OC(O)C(C(Cl)Cl)=C1Cl", "note": "(centres undefined)", "values": [{"measurement": "outcome", "setting": "Carcinogen: N-METHYL-N'-NITRO-N-NITROSOGUANIDINE [70-25-7], SODIUM CHLORIDE [7647-14-5], Doses [Carcinogen]: 100 PPM MNNG IN DRINKING WATER FOR 8 WK, 5% SODIUM CHLORIDE IN DIET FOR 8 WK (STUDY DURATION: 65 WK), Doses [Promoter]: 30 PPM IN DRINKING WATER FOR 53 WK BEGINNING POST LAST CARCINOGEN DOSE (STUDY DURATION: 65 WK), Route [Carcinogen]: ORAL, ORAL, Route [Promoter]: ORAL, Species: RAT, Strain/Sex: WISTAR/MALE", "result": "glandular stomach: adenocarcinoma"}]}
{"smiles": "CN(C)CCC=C1c2ccccc2CCc2ccccc21", "values": [{"measurement": "outcome", "setting": "Carcinogen: 7,12-DIMETHYLBENZ[A]ANTHRACENE, 57-97-6, Doses [Carcinogen]: 20 MG IN 2 ML PEANUT OIL ONCE, Doses [Promoter]: 0, 80 MG/M2 5 D/WK FOR 15 WK BEGINNING POST CARCINOGEN DOSE (STUDY DURATION: 15 WK), Route [Carcinogen]: GAVAGE, Route [Promoter]: INTRAPERITONEAL, Species: RAT, Strain/Sex: SPRAGUE-DAWLEY/FEMALE", "result": "mammary gland: tumor"}]}
{"smiles": "CCN(CC)CCCC(C)Nc1c2ccc(Cl)cc2nc2ccc(OC)cc12", "note": "(centres undefined)", "values": [{"measurement": "outcome", "setting": "Carcinogen: N-NITROBIS(2-OXOPROPYL)AMINE, 60599-38-4, Doses [Carcinogen]: 10 MG/KG BW 1/WK FOR 3 WK, Doses [Promoter]: 0, 100 PPM IN DIET FOR 37 WK BEGINNING POST CARCINOGEN TREATMENT (STUDY DURATION: 40 WK), Route [Carcinogen]: SUBCUTANEOUS, Route [Promoter]: ORAL, Species: HAMSTER, Strain/Sex: SYRIAN/FEMALE", "result": "pancreas: adenocarcinoma; liver: hepatocellular adenoma or carcinoma"}, {"measurement": "outcome", "setting": "Carcinogen: N-NITROBIS(2-OXOPROPYL)AMINE, 60599-38-4, Doses [Carcinogen]: 10 MG/KG BW 1/WK FOR 3 WK, Doses [Promoter]: 0, 300 PPM IN DIET FOR 37 WK BEGINNING POST CARCINOGEN TREATMENT (STUDY DURATION: 40 WK), Route [Carcinogen]: SUBCUTANEOUS, Route [Promoter]: ORAL, Species: HAMSTER, Strain/Sex: SYRIAN/FEMALE", "result": "liver: hepatocellular adenoma or carcinoma"}]}
{"smiles": "O=C1O[C@H]([C@H](O)CO)C(O)=C1O", "values": [{"measurement": "outcome", "setting": "Carcinogen: N-BUTYL-N-(4-HYDROXYBUTYL)NITROSAMINE, 3817-11-6, Doses [Carcinogen]: 0.05% IN DRINKING WATER FOR 4 WK, Doses [Promoter]: 0, 5% IN DIET FOR 32 WK (STUDY DURATION: 36 WK), Route [Carcinogen]: ORAL, Route [Promoter]: ORAL, Species: RAT, Strain/Sex: F344/MALE", "result": "urinary bladder: papilloma, carcinoma"}, {"measurement": "outcome", "setting": "Carcinogen: N-BUTYL-N-(4-HYDROXYBUTYL)NITROSAMINE, 3817-11-6, Doses [Carcinogen]: 0.05% IN DRINKING WATER FOR 4 WK, Doses [Promoter]: 0, 5% IN DIET FOR 32 WK BEGINNING POST CARCINOGEN (STUDY DURATION: 36 WK), Route [Carcinogen]: ORAL, Route [Promoter]: ORAL, Species: RAT, Strain/Sex: F344/MALE", "result": "bladder: papilloma, carcinoma"}]}
{"smiles": "CC(=O)Nc1ccc2c(c1)C(=O)c1ccccc1-2", "values": [{"measurement": "outcome", "setting": "Carcinogen: DIETHYLNITROSAMINE, 55-18-5, Doses [Carcinogen]: 200 MG/KG BW IN 0.9% SALINE ONCE, Doses [Promoter]: 0, 0.1 MMOL/KG BW IN POLYETHYLENE GLYCOL FOR 5 D BEGINNING 1 WK POST CARCINOGEN DOSE, 70% HEPATECTOMY PERFORMED 3 D AFTE, Route [Carcinogen]: INTRAPERITONEAL, Route [Promoter]: GAVAGE, Species: RAT, Strain/Sex: SPRAGUE-DAWLEY/MALE", "result": "liver: hepatocellular carcinoma"}]}
{"smiles": "O=[As](O)(O)O", "values": [{"measurement": "outcome", "setting": "Carcinogen: 7,12-DIMETHYLBENZ[A]ANTHRACENE [57-97-6], Doses [Carcinogen]: 50 UG 2 X A WK FOR 2 WKS (STUDY DURATION: 25 WKS), Doses [Promoter]: 25 MG/L IN DRINKING WATER FOR 25 WKS, Route [Carcinogen]: DERMAL (SKIN PAINTING), Route [Promoter]: ORAL (DRINKING WATER), Species: MOUSE, Strain/Sex: SWISS NUDE HAIRLESS/MALE", "result": "skin; papillomas"}]}
{"smiles": "O=C([O-])[C@H](O)[C@@H](O)[C@H](O)[C@H](O)CO.O=C([O-])[C@H](O)[C@@H](O)[C@H](O)[C@H](O)CO.[Cu+2]", "values": [{"measurement": "outcome", "setting": "Carcinogen: N-nitrosodiethylamine (DEN) (55-18-5), N-methylnitrosourea (MNU) (684-93-5), 1,2-dimethylhydrazine (DMH) (540-73-8), N-b, Carcinogen: N-nitrosodiethylamine (DEN) (55-18-5), N-methylnitrosourea (MNU) (684-93-5), 1,2-dimethylhydrazine (DMH) (540-73-8), N-b, Doses [Carcinogen]: DEN (100 mg/kg at commencement), MNU (4 injections of 20 mg/kg in first 2 wks), DMH (4 injections of 40 mg/kg in second, Doses [Carcinogen]: DEN (100 mg/kg at commencement), MNU (4 injections of 20 mg/kg in first 2 wks), DMH (4 injections of 40 mg/kg in second, Doses [Promoter]: 0, 10, 300, 3000, 6000 ppm in diet immediately after completion of initiator treatment for 25 wk, Doses [Promoter]: 0, 10, 300, 3000, 6000 ppm in diet immediately after completion of initiator treatment for 25 wk, Route [Carcinogen]: Intraperitoneal (DEN and MNU), subcutaneous (DMH), oral (BBN and DHPN), Route [Carcinogen]: Intraperitoneal (DEN and MNU), subcutaneous (DMH), oral (BBN and DHPN), Route [Promoter]: Oral, Species: Rat, Strain/Sex: BrlHan:WIST Jcl (GALAS)/Male (9-12/group)", "result": "liver: gst-p-positive lesions (p<0.05 at 300 and 3000 ppm and p<0.01 at 6000 ppm"}]}
{"smiles": "O=NN1CCC[C@H]1c1cccnc1", "values": [{"measurement": "outcome", "setting": "Carcinogen: Diethylnitrosamine, 55-18-5, Doses [Carcinogen]: 40 mg/l for 4 consecutive d/wk for 180 days, study duration 180 d, Doses [Promoter]: 30 mg/l, 3 d /wk for 180 d, study duration 180 d, Doses [Promoter]: 30 mg/l, 3 d /wk for 180 d, study duration 180 d, Route [Carcinogen]: Oral (drinking water), Route [Promoter]: Oral (drinking water), Species: Mouse, Strain/Sex: CF1/Female (16, 46/Group)", "result": "stomach: squamous cell carcinoma (33% vs 22%); adenocarcinoma (17% vs 15%); both"}]}
{"smiles": "CCCCCCCCCC1(CCCCCC(=O)OC2C(C)C3(O)C(C=C(CO)CC4(O)C(=O)C(C)=CC43)C3C(C)(C)C23OC(C)=O)OCC(C)(C)N1[O]", "note": "(centres undefined)", "values": [{"measurement": "outcome", "setting": "Carcinogen: 7,12-DIMETHYLBENZ[A]ANTHRACENE, 57-97-6, Doses [Carcinogen]: 100 NMOL ONCE, Doses [Promoter]: 0, 5 NMOL 2/WK FOR 24 WK BEGINNING 1 WK POST CARCINOGEN DOSE (STUDY DURATION: 25 WK), Route [Carcinogen]: DERMAL, Route [Promoter]: DERMAL, Species: MOUSE, Strain/Sex: NMRI/FEMALE", "result": "skin: tumor"}]}
{"smiles": "S=C=NCCCCCCc1ccccc1", "values": [{"measurement": "outcome", "setting": "Carcinogen: AZOXYMETHANE, 25843-45-2, Doses [Carcinogen]: 15 MG/KG BW 1/WK FOR 2 WK, Doses [Promoter]: 0, 640 PPM IN DIET BEGINNING 2 WK PRIOR TO CARCINOGEN DOSE (STUDY DURATION: 56 WK), Route [Carcinogen]: SUBCUTANEOUS, Route [Promoter]: ORAL, Species: RAT, Strain/Sex: F344/MALE", "result": "intestine: adenocarcinoma"}, {"measurement": "outcome", "setting": "Carcinogen: N-METHYL-N-BENZYLNITROSAMINE, 937-40-6, Doses [Carcinogen]: 0.5 MG/KG BW 1/WK FOR 15 WK, Doses [Promoter]: 0, 1, 2.5 UMOL/G DIET FOR DURATION OF STUDY BEGINNING 2 WK PRIOR TO CARCINOGEN TREATMENT (STUDY DURATION: 21 WK), Doses [Promoter]: 0, 1, 2.5 UMOL/G DIET FOR DURATION OF STUDY BEGINNING 2 WK PRIOR TO CARCINOGEN TREATMENT (STUDY DURATION: 21 WK), Route [Carcinogen]: SUBCUTANEOUS, Route [Promoter]: ORAL, Species: RAT, Strain/Sex: F344/MALE", "result": "esophagus: tumor"}]}
{"smiles": "Cc1c(C)c2c(c(C)c1O)CCC(C)(CCCC(C)CCCC(C)CCCC(C)C)O2", "note": "(centres undefined)", "values": [{"measurement": "outcome", "setting": "Carcinogen: 7,12-DIMETHYLBENZ[A]ANTHRACENE, 57-97-6, Doses [Carcinogen]: 10 NMOL IN 0.2 ML ACETONE ONCE, Doses [Promoter]: 0, 80 UMOL IN 0.2 ML ACETONE 2/WK BEGINNING 1 WK POST CARCINOGEN DOSE AND CONTINUING FOR 19 WK (STUDY DURATION: 20 WK), Route [Carcinogen]: DERMAL, Route [Promoter]: DERMAL, Species: MOUSE, Strain/Sex: SENCAR/FEMALE", "result": "skin: papilloma"}]}
{"smiles": "CC1(C)OC(=O)N(c2cc(Cl)cc(Cl)c2)C1=O", "values": [{"measurement": "outcome", "setting": "Carcinogen: 2-(ACETYLAMINO)FLUORINE, Doses [Carcinogen]: DIET, Doses [Promoter]: IN DIET, Route [Carcinogen]: ORAL, Route [Promoter]: ORAL, Species: RAT, Strain/Sex: MALE", "result": "liver"}]}
{"smiles": "CCCCCCCCCCCCCC(=O)O[C@@]12C[C@@H](C)[C@@]3(O)[C@@H](C=C(CO)C[C@]4(O)C(=O)C(C)=C[C@@H]34)[C@@H]1C2(C)C", "values": [{"measurement": "outcome", "setting": "Carcinogen: 7,12-DIMETHYLBENZ[A]ANTHRACENE, 57-97-6, Doses [Carcinogen]: 100 NMOL ONCE, Doses [Promoter]: 0, 80 NMOL 2/WK FOR 42 WK (STUDY DURATION: 42 WK), Route [Carcinogen]: DERMAL, Route [Promoter]: DERMAL, Species: MOUSE, Strain/Sex: NMRI", "result": "skin: tumor"}]}
{"smiles": "C/C=C(\\C(=C/C)c1ccc(O)cc1)c1ccc(O)cc1", "values": [{"measurement": "outcome", "setting": "Carcinogen: IRRADIATION, Doses [Carcinogen]: 260 CGY GAMMA RAYS AT DAY 20 OF PREGNANCY, Doses [Promoter]: 0, 0.376 UG/D RELEASED FROM PELLET IMPLANTED AFTER NURSING DISCONTINUED, PELLET REPLACED EVERY 8 WK (STUDY DURATION: 1 Y, Route [Carcinogen]: DERMAL, Route [Promoter]: IMPLANT, Species: RAT, Strain/Sex: WISTAR/FEMALE", "result": "mammary gland: tumor"}]}
{"smiles": "C#CCN(C)Cc1ccccc1", "values": [{"measurement": "outcome", "setting": "Carcinogen: AZOXYMETHANE, 25843-45-2, Doses [Carcinogen]: 7.4 MG/KG BW IN 0.9% SALINE 1/WK FOR 10 WK, Doses [Promoter]: 0, 50 MG/KG BW 1/2 D FOR 35 WK (STUDY DURATION: 35 WK), Route [Carcinogen]: SUBCUTANEOUS, Route [Promoter]: SUBCUTANEOUS, Species: RAT, Strain/Sex: WISTAR/MALE", "result": "colon: tumor"}]}
